This is an account of results in US12264155B2, “Compounds, pharmaceutical compositions, and methods of preparing compounds and of their use as ATR kinase inhibitors” (Repare Therapeutics Inc., priority 2018, dated 2025).

This experiment has as its system ATR kinase (CHK1 phosphorylation at Ser345) in HeLa S3 cells. The experiment is described as follows: ATR assay in HeLa S3 cells (CHK1 p-Ser345 AlphaScreen SureFire, gemcitabine). Note: gemcitabine 1.5 µM. The format is cell-based. The note with it: Homo sapiens, HeLa S3, HeLa S3 whole cell assay, 3.5 to 4 hours. The procedure: Media was then replaced by 20 μL per well Opti-MEM no phenol red and 5 μL of serial diluted compounds were added to the assay plate for a final DMSO concentration of 0.5%. […] The plate was incubated at 37° C., 1-5% CO2 for 3.5 to 4 hours.
In general, IC50 refers to the midpoint of a concentration-inhibition curve. `C[C@@H]1COCCN1c1cc([C@]2(O)CC[C@H](C(F)(F)F)CC2)c2cnn(-c3cc[nH]n3)c2n1` [Compound 114] returned an IC50 of 0.8 nM.

In turn, `Cc1nc(C(N)=O)c(-c2cc(N3CCOC[C@H]3C)nc3c2cnn3-c2cc[nH]n2)s1` [Compound 127] returned an IC50 of 7 nM.

`C[C@@H]1COCCN1c1cc([C@]2(O)CC[C@@]3(CCCO3)CC2)c2cnn(-c3cc[nH]n3)c2n1` [Compound 112] displayed an IC50 of 0.8 nM.

In turn, `C[C@@H]1COCCN1c1cc(C2(O)CCC3(CC3)CC2)c2cnn(-c3cc[nH]n3)c2n1` [Compound 123] showed an IC50 of 0.9 nM.

The compound `C[C@@H]1COCCN1c1cc(C2=C[C@H]3CC[C@@H](C2)O3)c2cnn(-c3cc[nH]n3)c2n1` [Compound 148] came in with an IC50 of 2.5 nM.

Take `C[C@@H]1COCCN1c1nc2c(cnn2-c2cc[nH]n2)c(-c2ccccc2C(F)(F)F)c1Cl` [Compound 149]: 27 nM corresponded to half-maximal inhibition (IC50).

With `COC1CCC(O)(c2cc(N3CCOC[C@H]3C)nc3c2cnn3-c2cc[nH]n2)CC1` (stereo partly drawn) [Compound 101], the concentration for half-maximal inhibition (IC50) came out at 1 nM.

In turn, `C[C@@H]1COCCN1c1cc(-c2ccc(C3CC3)nc2N)c2cnn(-c3cc[nH]n3)c2n1` [Compound 146] returned an IC50 of 3.1 nM.

In the case of `C[C@@H]1COCCN1c1cc(C2(O)CCOC3(CCC3)C2)c2cnn(-c3cc[nH]n3)c2n1` (stereo partly drawn) [Compound 107], the IC50 is 2 nM.

Consider `C[C@@H]1COCCN1c1cc(C2(O)C[C@H]3CC[C@@H](C2)S3)c2cnn(-c3cc[nH]n3)c2n1` (stereo partly drawn) [Compound 122], for which 1.1 nM corresponded to half-maximal inhibition (IC50). Against the preceding compound, the IC50 is about 1.8-fold lower.

In turn, `C[C@@H]1COCCN1c1cc(-c2cc(Cl)cnc2N)c2cnn(-c3cc[nH]n3)c2n1` [Compound 140] registered a 50% inhibitory concentration (IC50) of 7.2 nM.

Consider `C[C@@H]1COCCN1c1cc(-c2ccc(F)cc2S(C)(=O)=O)c2cnn(-c3cc[nH]n3)c2n1` [Compound 145], for which the midpoint of inhibition, the IC50, lay at 3.8 nM.

`C[C@@H]1COCCN1c1cc(C2(O)CCC(C#N)CC2)c2cnn(-c3cc[nH]n3)c2n1` (stereo partly drawn) [Compound 103] registered an IC50 of 1.7 nM.

Regarding `C[C@@H]1COCCN1c1cc(C2(O)CCC(C(C)(C)C)CC2)c2cnn(-c3ccn[nH]3)c2n1` (stereo partly drawn) [Compound 132], the midpoint of inhibition, the IC50, lay at 1.9 nM.

`C[C@@H]1COCCN1c1cc(C2(O)CCN(CC(F)F)CC2)c2cnn(-c3cc[nH]n3)c2n1` [Compound 108] displayed an IC50 of 1.3 nM.
